Data: US20220047594A1, “METHOD FOR TREATING INTERSTITIAL LUNG DISEASE” (ALTAVANT SCIENCES GmbH, priority 2018, published 2022)

What was measured:
TPH1 = target: T1, TPH1 (Mus musculus, UniProt P17532); details: amorphous form, U.S. Pat. No. 9,199,994 Example 63i and Table 27; cited from earlier work
T1 construct: host or cells: mice (in vivo)
T1 sequence (P17532 1-447): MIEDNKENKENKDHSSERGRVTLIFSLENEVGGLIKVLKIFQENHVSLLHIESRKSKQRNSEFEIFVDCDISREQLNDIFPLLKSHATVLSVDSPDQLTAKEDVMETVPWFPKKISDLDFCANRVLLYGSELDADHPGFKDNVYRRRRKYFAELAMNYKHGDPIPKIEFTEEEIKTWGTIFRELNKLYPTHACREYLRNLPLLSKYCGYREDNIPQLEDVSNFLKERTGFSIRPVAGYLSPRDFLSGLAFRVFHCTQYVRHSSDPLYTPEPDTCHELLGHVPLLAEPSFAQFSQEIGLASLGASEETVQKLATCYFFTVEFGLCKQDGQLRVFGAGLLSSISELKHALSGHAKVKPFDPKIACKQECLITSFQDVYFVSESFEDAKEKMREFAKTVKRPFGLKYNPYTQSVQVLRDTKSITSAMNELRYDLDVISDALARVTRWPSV

[1] = test system: bleomycin-induced mouse model; details: inflammatory phase and fibrogenic phase; cited from earlier work
[2] = stability and shelf life of the crystalline polymorphs of Compound A; assay type: physicochemical; details: compared to the crystalline Form 1 polymorph; particularly at temperatures of less than 95° C.
From the text: The compound may be used to prevent or treat IPF in either an amorphous or crystalline form. Two different polymorph crystalline forms are identified by x-ray powder diffraction patterns set forth in FIG. 1 (Form 3) and FIG. 2 (Form 1) as well as Tables 1 and 2 (Form 3) and Tables 3 and 4 (Form 1).

[3] = test system: bleomycin-induced mouse model; details: cited from earlier work

CCOC(=O)[C@@H]1CC2(CCN(c3cc(O[C@H](c4ccc(Cl)cc4-c4ccccc4)C(F)(F)F)nc(N)n3)CC2)CN1 [Compound A, (S)-ethyl 8-(2-amino-6-((R)-1-(5-chloro-[1,1′-biphenyl]-2-yl)-2,2,2-trifluoroethoxy)pyrimidin-4-yl)-2,8-diazaspiro[4.5]decane-3-carboxylate]
efficacy in inhibiting TPH1 in mice (TPH1): demonstrated

CC1CCN(CC[C@H]2CCCN2S(=O)(=O)c2cccc(O)c2)CC1 [SB-269970]
efficacy in attenuating pulmonary fibrosis [1]: attenuating in both the inflammatory phase and the fibrogenic phase

CCOC(=O)[C@@H]1CC2(CCN(c3cc(O[C@H](c4ccc(Cl)cc4-c4ccccc4)C(F)(F)F)nc(N)n3)CC2)CN1 [crystalline Form 3, (S)-ethyl 8-(2-amino-6-((R)-1-(5-chloro-[1,1′-biphenyl]-2-yl)-2,2,2-trifluoroethoxy)pyrimidin-4-yl)-2,8-diazaspiro[4.5]decane-3-carboxylate]
stability and shelf life [2]: substantially greater stability and shelf life

CCN(CC)C(=O)N[C@H]1C[C@@H]2c3cccc4[nH]cc(c34)C[C@H]2N(C)C1 [terguride]
efficacy in attenuating pulmonary fibrosis [1]: attenuating in both the inflammatory phase and the fibrogenic phase
lung function, histology and collagen content ([3]; bleomycin-induced mouse model, treated mice): improved lung function and histology and collagen content
tolerability ([3]; mouse, in vivo): well-tolerated
